Like-named read-outs stand apart in the source and are kept apart here.
Legend:
RSV F protein = conditions: pooled serum n=5 Balb/c
[1] = system: Neisseria gonorrhoeae Porin B protein; assay: Vaginal wash anti-Porin B protein IgG and IgA titers; format: in vivo, Swiss-Webster mice; conditions: Experiment 11; Swiss-Webster; starting dilution 1/5
Description: (§1) Outbred Swiss-Webster mice were divided into six groups of five mice each. Each group received 1 μg of recombinant Porin B protein (from strain FA1090 with 16 amino acids at the amino-terminus from a phage, followed by the mature form of the Porin B protein). […] Mice were immunized subcutaneously in the rump with a total volume of 0.2 ml. Immunizations were administered at week 0 and week 4.
(§2) Mice were bled the day prior to each immunization, and at 13 days after the final immunization. Serum was analyzed from pools from mice within groups. […] All day 0 pre-immunization titers were less than 50. The starting dilution for vaginal lavage analysis was 1/5.

T1SP10MN(A) (−Cys) [2] = conditions: for Vaginal lavage reciprocal anti-T1SP10MN(A) (−Cys) IgA endpoint titer / Vaginal lavage reciprocal anti-T1SP10MN(A) (−Cys) IgG endpoint titer: Experiment 2, pooled, n=5 Balb/c, 15 days after secondary immunization
Description: Animals were bled prior to initial immunization, and at indicated time points. Serum was analyzed from individual mice, or as pools from mice within groups. Vaginal lavage was performed on euthanized mice to assess antibody levels. This was accomplished by instillation of 75:1 RPMI-10 into the vaginal vault of female mice using a 200:1 pipette. The vault was washed by repeated delivery and removal of fluid, which was then added to 10:1 of FBS. Vaginal lavage were analyzed as pools.
For analysis of HIV peptide-specific antibody and subclass distribution, peptide was suspended in either carbonate buffer (15 mM Na2CO3, 35 mM NaHCO3, pH 9.6), or PBS, at a concentration of 1 μg/ml and plated to 96 well microtiter plates (Nunc) in a volume of 100:1. After overnight incubation at 37° C., plates were washed, and blocked (0.1% gelatin/PBS) at room temperature for 2-4 hours. ELISA plates were washed with wash buffer (PBS, 0.1% Tween™20) before addition of serially diluted serum (PBS, 0.1% gelatin, 0.05% Tween™20, 0.02% sodium azide). After a four hour incubation, wells were washed and appropriate dilutions of biotinylated anti-isotype/subclass antibodies were added for incubation at 4° C. overnight. Wells were washed and incubated with strepavidin-conjugated horseradish peroxidase. After incubation, wells were washed, and developed with ABTS. Wells were read at 405 nm. Titers were standardized using control sera.
Vaginal IgG and IgA anti-peptide antibody titers were measured from lavage obtained 2 weeks after final immunization. Groups of 5 Balb/c female mice were immunized with 25 μg T1SP10MN(A) (−Cys) and the indicated adjuvant formulations on days 0, 28, and 42. Vaginal antibody titers were determined from pool d lavage fluid.
HIV peptide-specific vaginal lavage endpoint reciprocal endpoint IgG and IgA antibody titers were measured from pooled serum (n=5 Balb/c) 15 days after secondary immunization. […] Aqueous MPL™ was delivered at 50 μg per dose. Recombinant murine IL-12 was delivered at 40 ng/mouse. Recombinant murine GM-CSF was delivered at 10 μg/mouse.
Vaginal IgG and IgA anti-peptide antibody titers were measured from lavage 41 days after initial immunization, 13 days after secondary immunization.

[3] = system: Neisseria gonorrhoeae Porin B protein; assay: Reciprocal anti-Porin B protein serum IgG endpoint subclass titers; format: in vivo, Swiss-Webster mice; conditions: for Reciprocal anti-Porin B Protein IgG1 endpoint titer, Week 3 / Reciprocal anti-Porin B Protein IgG1 endpoint titer, Week 6 / Reciprocal anti-Porin B Protein IgG2a endpoint titer, Week 3 / Reciprocal anti-Porin B Protein IgG2a endpoint titer, Week 6 / Reciprocal anti-Porin B Protein IgG endpoint titer, Week 3 / Reciprocal anti-Porin B Protein IgG endpoint titer, Week 6: 1 μg Porin B s.c. week 0 and 4
Description: as §1, with “five” for “six”, “ten” for “five”, “ml, divided equally into each of two sites at the base of the tail/rump.” for “ml.”
Mice were bled the day prior to each immunization, and at 13 days after the final immunization. Serum was analyzed from pools from mice within groups. […] All day 0 pre-immunization titers were less than 50.
Individual week 6 IgG titer geometric means against the recombinant Porin B protein were also determined.
as §1, §2

T1SP10MN(A) (−Cys) [4] = conditions: Experiment 3, 14 days after second immunization; for Reciprocal anti-HIV peptide IgG (GMT) endpoint titer: individual Swiss-Webster mice; for Reciprocal anti-HIV peptide IgG1 (pool) endpoint titer / Reciprocal anti-HIV peptide IgG2a (pool) endpoint titer: pooled serum Swiss-Webster
Description: The protocols of Experiment 2 were followed, with Swiss-Webster mice used instead of Balb/c mice. Only reciprocal anti-peptide IgG endpoint titers and vaginal lavage endpoint reciprocal endpoint IgG and IgA antibody titers were measured in this experiment.
Reciprocal anti-T1SP10MN(A) (−Cys) IgG endpoint titers were measured from geometric means from individual Swiss-Webster mice (GMT), obtained 14 days after the second immunization. IgG1 and IgG2a subclass endpoint titers were also measured from pooled serum. For recipients of Freund's adjuvants, mice were primed with peptide emulsified in CFA, and boosted with IFA. […] Aqueous MPL™ was delivered at 50 μg per dose. Recombinant murine IL-12 was delivered at 40 ng/mouse. Recombinant murine GM-CSF was delivered at 10 μg/mouse.

[5] = Experiment 12, 3 μg F protein i.m. week 0 and 4
[6] = Experiment 13, F protein week 0 and 4
[7] = Experiment 14, 3 μg F protein s.c. week 0 and 4
[8] = Experiment 4, Balb/c, day 41, 13 days after secondary immunization
[9] = Experiment 10, pooled serum n=10 Swiss-Webster
[10] = Experiment 11, pooled serum n=5 Swiss-Webster
[11] = Experiment 1, pooled lavage, 5 Balb/c, immunized days 0, 28, 42, 2 weeks after final immunization

RSV F protein, sequence (P03420 137-574): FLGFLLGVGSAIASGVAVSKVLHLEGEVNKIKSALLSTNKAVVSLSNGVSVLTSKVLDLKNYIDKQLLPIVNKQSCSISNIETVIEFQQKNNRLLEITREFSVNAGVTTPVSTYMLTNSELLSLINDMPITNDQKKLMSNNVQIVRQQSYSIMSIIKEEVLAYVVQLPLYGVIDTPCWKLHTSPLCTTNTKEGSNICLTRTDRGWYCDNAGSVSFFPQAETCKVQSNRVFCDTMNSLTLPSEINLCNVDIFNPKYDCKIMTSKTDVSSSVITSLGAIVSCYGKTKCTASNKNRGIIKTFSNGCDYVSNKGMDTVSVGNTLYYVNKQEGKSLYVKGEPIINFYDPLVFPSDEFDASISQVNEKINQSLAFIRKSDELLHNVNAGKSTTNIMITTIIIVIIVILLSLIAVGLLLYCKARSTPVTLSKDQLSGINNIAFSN

## 3-O-deacylated monophosphoryl lipid A [MPL ™]
RSV F protein; [5]
  Reciprocal anti-RSV F Protein IgG1 endpoint titer, Week 3: 28,134
  Reciprocal anti-RSV F Protein IgG1 endpoint titer, Week 6: 900,863
  Reciprocal anti-RSV F Protein IgG2a endpoint titer, Week 3: 11,882
  Reciprocal anti-RSV F Protein IgG2a endpoint titer, Week 6: 1,057,108
  Reciprocal anti-RSV F Protein IgG endpoint titer, Week 3: 124,197
  Reciprocal anti-RSV F Protein IgG endpoint titer, Week 6: 3,310,838
RSV F protein; [6]
  Reciprocal anti-RSV F Protein IgG1 endpoint titer, Week 3: 21,930
  Reciprocal anti-RSV F Protein IgG1 endpoint titer, Week 6: 1,384,927
  Reciprocal anti-RSV F Protein IgG2a endpoint titer, Week 3: 61,253
  Reciprocal anti-RSV F Protein IgG2a endpoint titer, Week 6: 955,685
  Reciprocal anti-RSV F Protein IgG endpoint titer, Week 3: 104,702
  Reciprocal anti-RSV F Protein IgG endpoint titer, Week 6: 6,153,833
RSV F protein; [7]
  Reciprocal anti-RSV F Protein IgG1 endpoint titer, Week 3: 55,767
  Reciprocal anti-RSV F Protein IgG1 endpoint titer, Week 6: 402,128
  Reciprocal anti-RSV F Protein IgG2a endpoint titer, Week 3: 8,397
  Reciprocal anti-RSV F Protein IgG2a endpoint titer, Week 6: 170,252
  Reciprocal anti-RSV F Protein IgG endpoint titer, Week 3: 26,179
  Reciprocal anti-RSV F Protein IgG endpoint titer, Week 6: 3,467,097
[1]
  Vaginal Wash IgA titer, anti-Porin B Protein: 5
  Vaginal Wash IgG titer, anti-Porin B Protein: 54
T1SP10MN(A) (−Cys) [2]
  Vaginal lavage reciprocal anti-T1SP10MN(A) (−Cys) IgA endpoint titer: <10
  Vaginal lavage reciprocal anti-T1SP10MN(A) (−Cys) IgG endpoint titer: <10
T1SP10MN(A) (−Cys) [2]; [8]
  Vaginal lavage IgA anti-T1SP10MN(A) (−Cys) antibody titer: <10
  Vaginal lavage IgG anti-T1SP10MN(A) (−Cys) antibody titer: 12
[3]; [9]
  Reciprocal anti-Porin B Protein IgG1 endpoint titer, Week 3: 171
  Reciprocal anti-Porin B Protein IgG1 endpoint titer, Week 6: 23,465
  Reciprocal anti-Porin B Protein IgG2a endpoint titer, Week 3: 318
  Reciprocal anti-Porin B Protein IgG2a endpoint titer, Week 6: 20,422
  Reciprocal anti-Porin B Protein IgG endpoint titer, Week 3: 3,381
  Reciprocal anti-Porin B Protein IgG endpoint titer, Week 6: 431,529
[3]; Experiment 10, week 6, Swiss-Webster
  Individual IgG titers against recombinant Porin B protein, Geometric Mean: 217,114
[3]; [10]
  Reciprocal anti-Porin B Protein IgG1 endpoint titer, Week 3: 500
  Reciprocal anti-Porin B Protein IgG1 endpoint titer, Week 6: 76,640
  Reciprocal anti-Porin B Protein IgG2a endpoint titer, Week 3: 1,925
  Reciprocal anti-Porin B Protein IgG2a endpoint titer, Week 6: 60,910
  Reciprocal anti-Porin B Protein IgG endpoint titer, Week 3: 5,656
  Reciprocal anti-Porin B Protein IgG endpoint titer, Week 6: 265,127
T1SP10MN(A) (−Cys) [4]
  Reciprocal anti-HIV peptide IgG (GMT) endpoint titer: 1,960
  Reciprocal anti-HIV peptide IgG1 (pool) endpoint titer: <1000
  Reciprocal anti-HIV peptide IgG2a (pool) endpoint titer: <1000

B1: GM-CSF: Recombinant murine granulocyte macrophage colony stimulating factor (protein, UniProt P01587 18-141, looked up)
Granulocyte-macrophage …: APTRSPITVTRPWKHVEAIKEALNLLDDMPVTLNEEVEVVSNEFSFKKLTCVQTRLKIFEQGLRGNFTKLKGALNMTASYYQTYCPPTPETDCETQVTTYADFIDSLKTFLTDIPFECKKPGQK
T1SP10MN(A) (−Cys) [2]; [11]
  Vaginal lavage IgA anti-T1SP10MN(A) (−Cys) antibody titer: <20
  Vaginal lavage IgG anti-T1SP10MN(A) (−Cys) antibody titer: <20
T1SP10MN(A) (−Cys) [2]
  Vaginal lavage reciprocal anti-T1SP10MN(A) (−Cys) IgA endpoint titer: <10
  Vaginal lavage reciprocal anti-T1SP10MN(A) (−Cys) IgG endpoint titer: 26
T1SP10MN(A) (−Cys) [2]; [8]
  Vaginal lavage IgA anti-T1SP10MN(A) (−Cys) antibody titer: <10
  Vaginal lavage IgG anti-T1SP10MN(A) (−Cys) antibody titer: <10
T1SP10MN(A) (−Cys) [4]
  Reciprocal anti-HIV peptide IgG (GMT) endpoint titer: 500
  Reciprocal anti-HIV peptide IgG1 (pool) endpoint titer: <1000
  Reciprocal anti-HIV peptide IgG2a (pool) endpoint titer: <1000

B2: rIL-12: Recombinantly expressed murine IL-12 (Genetics Institute) (protein, UniProt P43431 23-215; P43432 23-335, looked up)
Interleukin-12 subunit alpha: RVIPVSGPARCLSQSRNLLKTTDDMVKTAREKLKHYSCTAEDIDHEDITRDQTSTLKTCLPLELHKNESCLATRETSSTTRGSCLPPQKTSLMMTLCLGSIYEDLKMYQTEFQAINAALQNHNHQQIILDKGMLVAIDELMQSLNHNGETLRQKPPVGEADPYRVKMKLCILLHAFSTRVVTINRVMGYLSSA
Interleukin-12 subunit beta: MWELEKDVYVVEVDWTPDAPGETVNLTCDTPEEDDITWTSDQRHGVIGSGKTLTITVKEFLDAGQYTCHKGGETLSHSHLLLHKKENGIWSTEILKNFKNKTFLKCEAPNYSGRFTCSWLVQRNMDLKFNIKSSSSSPDSRAVTCGMASLSAEKVTLDQRDYEKYSVSCQEDVTCPTAEETLPIELALEARQQNKYENYSTSFFIRDIIKPDPPKNLQMKPLKNSQVEVSWEYPDSWSTPHSYFSLKFFVRIQRKKEKMKETEEGCNQKGAFLVEKTSTEVQCKGGNVCVQAQDRYYNSSCSKWACVPCRVRS
RSV F protein; [7]
  Reciprocal anti-RSV F Protein IgG1 endpoint titer, Week 3: 3,442
  Reciprocal anti-RSV F Protein IgG1 endpoint titer, Week 6: 1,345,099
  Reciprocal anti-RSV F Protein IgG2a endpoint titer, Week 3: 500
  Reciprocal anti-RSV F Protein IgG2a endpoint titer, Week 6: 65,951
  Reciprocal anti-RSV F Protein IgG endpoint titer, Week 3: 13,557
  Reciprocal anti-RSV F Protein IgG endpoint titer, Week 6: 4,459,059
[1]
  Vaginal Wash IgA titer, anti-Porin B Protein: 5
  Vaginal Wash IgG titer, anti-Porin B Protein: 93
T1SP10MN(A) (−Cys) [2]; [11]
  Vaginal lavage IgA anti-T1SP10MN(A) (−Cys) antibody titer: <20
  Vaginal lavage IgG anti-T1SP10MN(A) (−Cys) antibody titer: <20
T1SP10MN(A) (−Cys) [2]
  Vaginal lavage reciprocal anti-T1SP10MN(A) (−Cys) IgA endpoint titer: <10
  Vaginal lavage reciprocal anti-T1SP10MN(A) (−Cys) IgG endpoint titer: <10
T1SP10MN(A) (−Cys) [2]; [8]
  Vaginal lavage IgA anti-T1SP10MN(A) (−Cys) antibody titer: <10
  Vaginal lavage IgG anti-T1SP10MN(A) (−Cys) antibody titer: <10
[3]; [10]
  Reciprocal anti-Porin B Protein IgG1 endpoint titer, Week 3: 2,578
  Reciprocal anti-Porin B Protein IgG1 endpoint titer, Week 6: 6,278
  Reciprocal anti-Porin B Protein IgG2a endpoint titer, Week 3: 2,071
  Reciprocal anti-Porin B Protein IgG2a endpoint titer, Week 6: 58,552
  Reciprocal anti-Porin B Protein IgG endpoint titer, Week 3: 7,266
  Reciprocal anti-Porin B Protein IgG endpoint titer, Week 6: 571,325
T1SP10MN(A) (−Cys) [4]
  Reciprocal anti-HIV peptide IgG (GMT) endpoint titer: 500
  Reciprocal anti-HIV peptide IgG1 (pool) endpoint titer: <1000
  Reciprocal anti-HIV peptide IgG2a (pool) endpoint titer: <1000

Source: patent US7611721B1, “Adjuvant combination formulations” (priority 2000, dated 2009)
